Measurements taken from publication PMC6370995, “Phase I study of PF‐04895162, a Kv7 channel opener, reveals unexpected hepatotoxicity in healthy subjects, but not rats or monkeys: clinical evidence of disrupted bile acid homeostasis” (Pharmacology Research & Perspectives, 2019).
Like-named read-outs stand apart in the source and are kept apart here.

What was measured:
[1] = ADME of single oral dose of 14C-labeled parent in male rats; assay type: in vivo, rat; details: single oral dose (target 15 mg/kg) 14C-labeled
From the text: A summary of liver effects along with a detailed synopsis of each nonclinical study that was used to support the Investigational New Drug Application filing along with longer term studies can be found in the supplemental information associated with this article. In brief, this compound advanced into clinical studies without any histopathological evidence of liver injury or reproducible transaminase elevations in rats and monkeys. The addition of total bile acid analysis in nonclinical safety assessment studies, although germane to this investigation retrospectively, is not routine.26 Absorption, distribution, metabolism, and excretion of parent and metabolites were examined in albino and pigmented male rats after administration of a single oral dose (target 15 mg/kg) of ^14C‐labeled parent. Elimination of radioactivity occurred mostly within the first 24 hours after dosing with approximately 71 and 22% of the administered dose excreted in feces and urine, respectively. An equivalent human study was not performed.

[2] = system: liver mitochondrial function; assay: mitochondrial state 3/4 respiration in the presence of glutamate/malate; assay type: biochemical; details: N = 2
From the text: […]

[3] = system: healthy subjects; assay: Biomarkers of liver injury in residual plasma PK samples (miRNA122, total and fractionated bile acids); assay type: in vivo, human; details: 300 mg BID
Procedure: Methodology for the following in vitro assays and biomarker determinations were as follows: THLE/HepG2 72 hour cytotoxicity assays based on ATP depletion;14 mitochondrial functional assessment based on state 3/4 respiration determination in the presence of glutamate/malate15, 16 or fatty acid oxidation inhibition using palmitate;17 BSEP inhibition in vesicles using tritium labeled taurocholic acid (TCA);18 human hepatocyte imaging assay determination of cell loss, mitochondrial membrane permeability, glutathione content, and production of reactive oxygen species;19 miRNA‐122 determination using QuantiGene 2.0 miRNA;20 human multidrug resistance protein 3 inhibition/activation (MDR3, encoded by ABCB4) was determined at Biotranex based on biotransformation of d 9‐choline to d 9‐phosphatidylcholine in human hepatocytes;21 and fractionated bile acid determinations were conducted by LC‐MS/MS methodology.22 These various assays have been published in detail and used by us in previous investigative works.2, 3, 21 Examination of human sodium/taurocholate cotransporting polypeptide (NTCP, encoded by SLC10A1) was determined based on uptake of tritium labeled TCA in CHO cells and human multidrug resistance‐associated protein 3/4 (MRP3/4, encoded by ABCC3/4) transporter inhibition in vesicles obtained from HEK293 cells using tritium labeled estradiol 17 β‐D‐glucuronide and dehydroepiandrosterone sulfate as substrates, respectively.
Three of eight treated healthy subjects consented for additional analyses of residual plasma PK samples for biomarkers of liver injury (e.g., miRNA122, total, and fractionated bile acids).

[4] = system: cynomolgus monkeys; assay: Escalating Dose Range-Finding and Maximum Tolerated Dose Study in Cynomolgus Monkeys; assay type: in vivo, cynomolgus monkey
[5] = system: Sprague-Dawley rats; assay: 6-Month Oral Toxicity Study in Sprague Dawley Rats; assay type: in vivo, rat
Procedure: In the longer-term studies Sprague-Dawley rats were administered PF-04895162 once daily for 28 days or 6 months at doses up to 100 mg/kg/day. […] The drug was well absorbed into the systemic circulation of male and female rats following oral administration for 6 months.

[6] = system: human hepatocytes; assay: human hepatocyte imaging assay (cell loss); assay type: cell-based; details: 48 hours; three assessments in two human hepatocyte lots (LBN and HU4165)
From the text: […]

[7] = biological target: T1, MRP4 (Homo sapiens, UniProt O15439); assay: MRP4 transporter inhibition in vesicles from HEK293 cells; assay type: biochemical
T1 construct: host or cells: membrane vesicles from HEK293 cells
T1 sequence (O15439 1-1325): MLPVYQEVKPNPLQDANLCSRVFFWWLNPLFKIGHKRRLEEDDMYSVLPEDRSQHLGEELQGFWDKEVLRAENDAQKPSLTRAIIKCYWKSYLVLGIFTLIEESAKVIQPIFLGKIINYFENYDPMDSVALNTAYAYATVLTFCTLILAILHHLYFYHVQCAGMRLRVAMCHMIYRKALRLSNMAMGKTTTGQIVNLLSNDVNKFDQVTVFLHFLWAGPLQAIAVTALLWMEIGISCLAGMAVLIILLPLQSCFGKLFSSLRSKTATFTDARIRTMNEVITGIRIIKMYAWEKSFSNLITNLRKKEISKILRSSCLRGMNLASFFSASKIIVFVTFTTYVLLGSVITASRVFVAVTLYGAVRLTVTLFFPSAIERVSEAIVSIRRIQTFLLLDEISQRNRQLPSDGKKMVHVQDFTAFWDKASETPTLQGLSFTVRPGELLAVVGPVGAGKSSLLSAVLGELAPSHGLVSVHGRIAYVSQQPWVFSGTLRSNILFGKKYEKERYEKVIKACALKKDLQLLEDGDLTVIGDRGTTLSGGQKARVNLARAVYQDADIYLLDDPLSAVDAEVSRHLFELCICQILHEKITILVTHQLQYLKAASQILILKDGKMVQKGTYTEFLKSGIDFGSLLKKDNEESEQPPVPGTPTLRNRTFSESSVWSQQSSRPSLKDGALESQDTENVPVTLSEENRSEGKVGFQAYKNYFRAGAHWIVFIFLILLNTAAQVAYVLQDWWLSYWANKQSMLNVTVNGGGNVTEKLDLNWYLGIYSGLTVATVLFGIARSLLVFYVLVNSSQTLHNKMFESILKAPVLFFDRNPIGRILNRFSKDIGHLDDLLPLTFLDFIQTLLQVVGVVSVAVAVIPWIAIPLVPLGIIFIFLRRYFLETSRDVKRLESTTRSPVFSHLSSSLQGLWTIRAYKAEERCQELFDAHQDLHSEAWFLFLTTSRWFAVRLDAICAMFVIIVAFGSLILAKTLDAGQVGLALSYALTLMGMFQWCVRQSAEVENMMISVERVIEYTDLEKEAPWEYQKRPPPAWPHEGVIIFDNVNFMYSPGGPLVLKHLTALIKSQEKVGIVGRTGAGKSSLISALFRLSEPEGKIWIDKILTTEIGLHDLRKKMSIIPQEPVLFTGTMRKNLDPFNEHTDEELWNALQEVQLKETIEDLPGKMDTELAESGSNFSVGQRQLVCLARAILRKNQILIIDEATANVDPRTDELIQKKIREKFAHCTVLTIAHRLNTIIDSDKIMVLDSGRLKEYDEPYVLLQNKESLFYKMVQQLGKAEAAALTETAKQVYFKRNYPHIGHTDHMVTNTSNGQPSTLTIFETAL
From the text: […]

Which results are given for O=C(Cc1ccc(F)cc1)Nn1c(C2CC2)nc2cc(F)ccc2c1=O [PF‐04895162, N‐(2‐cyclopropyl‐7‐fluoro‐4‐oxoquinazolin‐3(4H)‐yl)‐2‐(4‐fluorophenyl)ethanamide]?
administered dose excreted in feces [1]: approximately 71%; administered dose excreted in urine [1]: ~22%; IC50 ([2]; read-out: IC50 for inhibition of glutamate/malate respiration): ~10 µM; IC50 ([2]; read-out: IC50 for uncoupling activity): > 100 µM; plasma miRNA122, Subject 8 ([3]; Period 3): elevated (>ULN) by Day 5; fasting total bile acid levels of treated subjects ([3]; Period 3, normal range <10 μmol/L): within the normal range; hydrophobicity index of serum bile acids, Subject 6 ([3]; Day 7, AUC 0-12 h): 0.47; hydrophobicity index of serum bile acids, Subject 8 ([3]; Day 7, AUC 0-12 h): 0.40; hydrophobicity index of serum bile acids, Subject 10 ([3]; Day 7, AUC 0-12 h): 0.45; gross findings at necropsy, organ weights, liver histopathology, Dosing Phase 1 ([4]; 25, 50, 100 and 200 mg/kg): no other apparent effects of treatment; clinical signs, Dosing Phase 2 ([4]; morning following dosing at 200 mg/kg/day, all 4 treated monkeys): hyperactivity, ataxia, tremors, and dilated pupils; clinical observation, Dosing Phase 1 ([4]; single escalating NG doses, most prevalently at 100 and 200 mg/kg): Post-dosing vomitus; liver weights ([5]; 6 months, up to 100 mg/kg/day): Increased liver weights; deaths ([5]; 10, 30 and 100 mg/kg/day, 6 months): no test-article related deaths; accumulation of parent drug / induction of drug metabolizing enzymes ([5]; by the end of the 6 month study): no evidence of accumulation of parent drug or any apparent induction of drug metabolizing enzymes; Microscopic changes in liver ([5]; females at 30 mg/kg/day and males and females at 100 mg/kg/day for 6 months): centrilobular hypertrophy; body temperature ([5]; females only, Days 1 and 91 at 30 and 100 mg/kg/day): mild decrease in body temperature; Mean food consumption ([5]; males and females at 100 mg/kg/day, entire 6-month period): less compared to controls; clinical chemistry changes ([5]; males and/or females at 30 and/or 100 mg/kg/day): higher phosphorus, potassium, bilirubin, and cholesterol values and lower chloride and glucose levels; Mean body weights ([5]; males at 30 and 100 mg/kg/day, females at 100 mg/kg/day): lower compared to controls; transaminases ([5]; once daily for 6 months, up to 100 mg/kg/day): No transaminase elevations; AC50 [6]: > 125 µM; IC50 [7]: 121 µM
